In US6080771A, “DC107 derivatives” (Kyowa Hakko Kogyo Co., Ltd., priority 1996, dated 2000):
Converted amounts (≈) assume the structure as drawn. Like-named read-outs stand apart in the source and are kept apart here.

Legend:
Escherichia coli ATCC 26 = assay: Antimicrobial activity, agar dilution method (MIC), EC; assay type: cell-based
Excerpt: | EC: Escherichia coli ATCC 26

[1] = tested on: Enterococcus hirae ATCC 10541; assay: Antimicrobial activity, agar dilution method (MIC), EH; conditions: pH 7
Protocol: Antimicrobial activity was determined by the agar dilution method using a culture medium (pH 7) prepared by dissolving 3 g of Bacto-Tryptone (manufactured by Difco, Co.), 3 g of meat extract, 1 g of yeast extract, 1 g of glucose, and 16 g of agar in 1 l of water.
EH: Enterococcus hirae ATCC 10541

[2] = tested on: Staphylococcus aureus ATCC 6538P; assay: Antimicrobial activity, agar dilution method (MIC), SA; assay type: cell-based; conditions: ATCC6538P, pH 7, read-out: MIC, SA
Excerpt: | SA: Staphylococcus aureus ATCC 6538P

[3] = tested on: Sarcoma 180 mouse solid tumor; assay: Antitumor activity against Sarcoma 180 mouse solid tumor; assay type: in vivo, male ddY mice; conditions: Sarcoma-180, iv, 168 h, single i.v., tumor volume on day 7 from transplant, read-out: T/C (tumor volume ratio treated/control)
Protocol: To a ddY mouse were intraperitoneally transplanted 5×10^6 sarcoma 180 cells. On the seventh day from the transplant, the cells were collected from the ascites, washed once with sterilized physiological saline, and then diluted with sterilized physiological saline to prepare a cell suspension having a concentration of 5×10^7 cells/mL. This suspension was transplanted in an amount of 0.01 mL to a subcutaneous part of the right axilla of each of male ddY mice each weighing 20±1 g.
A test compound was dissolved in physiological saline containing polyoxyethylene sorbitan monolaurate. At 24 hours after the tumor transplant, 0.2 mL of the solution was intravenously administered to the tail of each of a group of five mice.

[4] = tested on: Klebisiella pneumoniae ATCC 10031; assay: Antimicrobial activity, agar dilution method (MIC), KP; assay type: cell-based
Excerpt: | KP: Klebisiella pneumoniae ATCC 10031

[5] = tested on: Bacillus substilis NO. 10707; assay: Antimicrobial activity, agar dilution method (MIC), BS; assay type: cell-based
Excerpt: | BS: Bacillus substilis NO. 10707

HeLa S3 cells = assay: HeLa S3 cell growth inhibition test (Neutral Red); assay type: cell-based; conditions: Homo sapiens, read-out: HeLa S3 Cell Growth Inhibition Activity, IC50
Protocol: In each well of a 96-well microtiter plate was placed 0.1 mL of HeLa S3 cells having a concentration of 8×10^3 cells/mL and prepared in an MEM culture medium containing 10% fetal bovine serum and 2 mM glutamine. After the cells were incubated overnight at 37° C. in a carbon dioxide incubator, a test compound suitably diluted with a medium was added to the wells in an amount of 0.05 mL for each well. The cells were incubated at 37° C. for 72 hours in a carbon dioxide incubator. After the culture supernatant was removed, 0.1 mL of a culture medium containing 0.02% Neutral Red was added to each well. The cells were then incubated at 37° C. for 1 hour in a carbon dioxide incubator to dye the cells. After the culture supernatant was removed, each residue was rinsed once with physiological saline and the pigment was extracted with 0.001N hydrochloric acid/30% ethanol. The absorbance at 550 nm of each extract was measured with a microplate reader. The drug concentration required for the 50% inhibition of cell growth, which is referred to as IC50, was calculated by comparing the absorbance for untreated cells with those for cells treated with the drug in known concentrations.

[6] = ATCC26, agar dilution, pH 7, read-out: MIC, EC
[7] = agar dilution, pH 7, read-out: MIC, KP
[8] = NO.10707, agar dilution, pH 7, read-out: MIC, BS
[9] = ATCC26, pH 7, read-out: MIC, EC

Compound | MIC, EH [1] | MIC ([2]; agar dilution) | MIC [4, 7] | MIC [5, 8] | response vs control in vivo at 8 mg/kg [3] | also measured
C/C1=C\C(OC(=O)COCCCO)C(=O)/C=C/C=C\c2csc(n2)C(C)NC(=O)CC2(CC1)[S+]([O-])SC(=O)C2(C)O (stereo not shown) [Compound 33] | 0.065 µg/mL (≈ 0.104 µM) | 0.13 µg/mL (≈ 0.207 µM) | 0.13 µg/mL (≈ 0.207 µM) | 0.065 µg/mL (≈ 0.104 µM) | – | MIC (Escherichia coli ATCC 26; [6]): 1 µg/mL (≈ 1.6 µM); response vs control in vivo at 2 mg/kg [3]: 36%
C/C1=C\C(OC(=O)COCCCCO)C(=O)/C=C/C=C\c2csc(n2)C(C)NC(=O)CC2(CC1)[S+]([O-])SC(=O)C2(C)O (stereo not shown) [Compound 35] | 0.098 µg/mL (≈ 0.153 µM) | 0.098 µg/mL (≈ 0.153 µM) | 0.098 µg/mL (≈ 0.153 µM) | 0.2 µg/mL (≈ 0.312 µM) | – | MIC (Escherichia coli ATCC 26; [9]): 1.6 µg/mL (≈ 2.5 µM); response vs control in vivo at 4 mg/kg [3]: 22%
C/C1=C\C(OC(=O)COCCOCCOCCOCCO)C(=O)/C=C/C=C\c2csc(n2)C(C)N2C(=O)CC(C(C)(O)C(=O)SCc3oc(=O)oc3C)(CC1)[S+]2[O-] (stereo not shown) [Compound 38] | 1.8 µg/mL (≈ 2.1 µM) | – | – | – | 43% | MIC [2]: 3.7 µg/mL (≈ 4.32 µM); MIC ([4]; pH 7, read-out: MIC, KP): 1.8 µg/mL (≈ 2.1 µM); MIC ([5]; NO.10707, pH 7, read-out: MIC, BS): 1.8 µg/mL (≈ 2.1 µM)
COCCOCCOCC(=O)OC1/C=C(\C)CCC2(C(C)(O)C(=O)SCOC(=O)OCCN3CCCC3=O)CC(=O)N(C(C)c3nc(cs3)/C=C\C=C\C1=O)[S+]2[O-] (stereo not shown) [Compound 44] | – | – | – | – | – | response vs control in vivo at 2 mg/kg [3]: 43%
COCCOCCOCC(=O)OC1/C=C(\C)CCC2(C(C)(O)C(=O)SCOC(=O)OCCOCCOC)CC(=O)N(C(C)c3nc(cs3)/C=C\C=C\C1=O)[S+]2[O-] (stereo not shown) [Compound 45] | – | – | – | – | – | response vs control in vivo at 4 mg/kg [3]: 45%
COCCOCCOCC(=O)OC1/C=C(\C)CCC2(C(C)(O)C(=O)SCOC(=O)COCCOCCO)CC(=O)N(C(C)c3nc(cs3)/C=C\C=C\C1=O)[S+]2[O-] (stereo not shown) [Compound 47] | – | – | – | – | 40% | –
CC(=O)OCC1OC(OC2C=C(C)CCC3(CC(=O)NC(C)c4nc(cs4)C=CC=CC2=O)[S+]([O-])SC(=O)C3(C)O)C=CC1OC(C)=O (stereo not shown) [Compound 50] | 0.020 µg/mL (≈ 0.0277 µM) | 0.02 µg/mL (≈ 0.0277 µM) | 0.16 µg/mL (≈ 0.221 µM) | 0.02 µg/mL (≈ 0.0277 µM) | – | IC50 (HeLa S3 cells; HeLa S3, 72 hours, 37° C.): 3.5 nM; MIC (Escherichia coli ATCC 26; [6]): 0.16 µg/mL (≈ 0.221 µM)
CC(=O)OC[C@H]1OC(OC2/C=C(\C)CCC3(CC(=O)NC(C)c4nc(cs4)/C=C\C=C\C2=O)[S+]([O-])SC(=O)C3(C)O)C[C@@H](OC(C)=O)[C@@H]1OC(C)=O (stereo partly shown) [Compound 53] | 0.20 µg/mL (≈ 0.255 µM) | 0.098 µg/mL (≈ 0.125 µM) | 1.6 µg/mL (≈ 2.04 µM) | 0.098 µg/mL (≈ 0.125 µM) | – | IC50 (HeLa S3 cells; HeLa S3, 72 h): 16 nM; MIC (Escherichia coli ATCC 26; [9]): 25 µg/mL (≈ 31.9 µM)
CC(=O)O[C@@H]1C=CC(OC2/C=C(\C)CCC3(CC(=O)NC(C)c4nc(cs4)/C=C\C=C\C2=O)[S+]([O-])SC(=O)C3(C)O)O[C@H]1C (stereo partly shown) [Compound 57] | 0.13 µg/mL (≈ 0.196 µM) | 0.13 µg/mL (≈ 0.196 µM) | 0.26 µg/mL (≈ 0.391 µM) | 0.033 µg/mL (≈ 0.0496 µM) | – | IC50 (HeLa S3 cells; HeLa S3, 72 h): 16 nM; MIC (Escherichia coli ATCC 26; [9]): 0.52 µg/mL (≈ 0.782 µM)
CC(=O)O[C@H]1[C@H](C)OC(OC2/C=C(\C)CCC3(C(C)(O)C(=O)SCc4oc(=O)oc4C)CC(=O)N(C(C)c4nc(cs4)/C=C\C=C\C2=O)[S+]3[O-])C[C@@H]1OC(C)=O (stereo partly shown) [Compound 66] | – | – | – | – | – | IC50 (HeLa S3 cells; HeLa S3, 72 hours, 37° C.): 6.1 nM; response vs control in vivo at 4 mg/kg [3]: 47%
C/C1=C\C(OC2C=C[C@@H](O)[C@H](C)O2)C(=O)/C=C/C=C\c2csc(n2)C(C)N2C(=O)CC(C(C)(O)C(=O)SCc3oc(=O)oc3C)(CC1)[S+]2[O-] (stereo partly shown) [Compound 67] | – | – | – | – | 44% | –
CC(=O)O[C@@H]1C=CC(OC2/C=C(\C)CCC3(C(C)(O)C(=O)SCc4oc(=O)oc4C)CC(=O)N(C(C)c4nc(cs4)/C=C\C=C\C2=O)[S+]3[O-])O[C@H]1C (stereo partly shown) [Compound 68] | – | – | – | – | 50% | –
CC(=O)O[C@@H]1C=CC(OC2/C=C(\C)CCC3(C(C)(O)C(=O)SCc4oc(=O)oc4C)CC(=O)N(C(C)c4nc(cs4)/C=C\C=C\C2=O)[S+]3[O-])O[C@H]1C (stereo partly shown) [Compound 69] | – | – | – | – | – | IC50 (HeLa S3 cells; HeLa S3, 72 hours, 37° C.): 3.2 nM
